Like-named read-outs stand apart in the source and are kept apart here.
Columns and labels:
[1] = target: Factor XIa (Homo sapiens, UniProt P03951); assay: Factor XIa inhibition assay utilizing a fluorophore-quencher pair peptide substrate (FLINT); assay type: biochemical; conditions: for Ki: read-out: FXIa Ki; for IC50: read-out: FXIa IC50
In short: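 Enzyme preincubated 30 min at room temperature with compound (11-point 3-fold dilution, top 100 nM, 2% DMSO), then 15 μM 5Fam-KLTRAETV-K5Tamra substrate added. Buffer: 50 mM Tris pH 7.5, 100 mM NaCl, 5 mM CaCl2, 0.1 mg/mL BSA, 0.03% CHAPS. Fluorescence (485/520 nm) read kinetically over 30 min; IC50 from 4-parameter logistic fit.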

[2] = target: human plasma kallikrein (Homo sapiens, UniProt P03952); assay: Kallikrein inhibition assay utilizing a quenched AMC peptide substrate (FLINT); assay type: biochemical; conditions: 30 min preincubation, 50 μM Z-Gly-Pro-Arg-AMC, 2 nM kallikrein
Sequence of human plasma kallikrein (P03952 391-638 limits assumed): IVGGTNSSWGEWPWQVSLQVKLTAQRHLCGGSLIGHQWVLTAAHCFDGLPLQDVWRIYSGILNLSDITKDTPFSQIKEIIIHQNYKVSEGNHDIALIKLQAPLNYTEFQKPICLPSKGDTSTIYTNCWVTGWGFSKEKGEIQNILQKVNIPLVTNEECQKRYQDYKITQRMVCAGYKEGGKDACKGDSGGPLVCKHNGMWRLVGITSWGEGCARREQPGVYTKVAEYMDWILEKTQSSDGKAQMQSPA
Sequence of human plasma kallikrein (P03952 20-390 partner limits assumed): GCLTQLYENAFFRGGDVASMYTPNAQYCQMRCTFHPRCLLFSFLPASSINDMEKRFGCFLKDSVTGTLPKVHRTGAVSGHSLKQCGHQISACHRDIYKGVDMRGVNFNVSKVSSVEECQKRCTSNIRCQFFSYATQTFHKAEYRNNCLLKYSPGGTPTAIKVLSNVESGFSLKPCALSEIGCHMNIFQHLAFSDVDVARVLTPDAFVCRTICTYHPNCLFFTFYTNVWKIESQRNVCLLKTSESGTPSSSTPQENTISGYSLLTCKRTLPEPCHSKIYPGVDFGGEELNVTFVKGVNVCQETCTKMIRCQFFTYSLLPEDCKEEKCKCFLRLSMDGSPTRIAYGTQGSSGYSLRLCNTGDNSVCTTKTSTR
In short: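 Human plasma kallikrein (2 nM final) was preincubated 30 min at room temperature with compound (11-point 3-fold dilution, top 1 μM, 2% DMSO) in pH 7.5 Tris buffer with CaCl2, BSA and CHAPS. Z-Gly-Pro-Arg-AMC (50 μM final) fluorescence was read at 340/440 nm every 5 min for 30 min. IC50 came from a 4-parameter logistic fit.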

[3] = cells that print μM themselves in the nM column
[4] = cells that print μM themselves in the nM column, same assay conditions
[5] = 30 min preincubation, 5Fam-KLTRAETV-K5Tamra substrate 15 μM final, kinetic reads

Sequence of Factor XIa (P03951 388-625 limits assumed): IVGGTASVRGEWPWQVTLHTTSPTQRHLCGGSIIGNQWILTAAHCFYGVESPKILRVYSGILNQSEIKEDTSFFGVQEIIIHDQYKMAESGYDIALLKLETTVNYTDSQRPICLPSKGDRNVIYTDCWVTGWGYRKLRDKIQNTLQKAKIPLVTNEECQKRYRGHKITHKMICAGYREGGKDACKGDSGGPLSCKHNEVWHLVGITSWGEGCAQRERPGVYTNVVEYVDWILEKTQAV
Sequence of Factor XIa (P03951 19-387 partner limits assumed): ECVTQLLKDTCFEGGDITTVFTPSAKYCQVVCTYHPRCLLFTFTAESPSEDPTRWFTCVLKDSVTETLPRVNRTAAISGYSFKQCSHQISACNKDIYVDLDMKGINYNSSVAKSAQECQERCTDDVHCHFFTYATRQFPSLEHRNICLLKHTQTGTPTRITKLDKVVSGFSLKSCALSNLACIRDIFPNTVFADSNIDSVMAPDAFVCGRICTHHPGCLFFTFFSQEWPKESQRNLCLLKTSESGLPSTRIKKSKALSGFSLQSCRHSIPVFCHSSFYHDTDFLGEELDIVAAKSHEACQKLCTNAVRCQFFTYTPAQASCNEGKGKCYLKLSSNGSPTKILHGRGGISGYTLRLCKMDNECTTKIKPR

Ki [1, 3] [µM] | IC50 [1, 4] [µM] | IC50 [2] [nM] | IC50 [1, 5] [µM] | Ki [1] [µM] | Compound
2.54 | 5.07 | > 10000 |  |  | O=C1NC2(CC2)Cc2ccc(Cl)c(F)c2-c2cc(=O)n3c(c21)CC[C@@H]3c1ncc(-c2ccc3cncn3c2)[nH]1 (stereo in doubt) [Compound 22, (R*)-7-chloro-8-fluoro-12-(5-(imidazo[1,5-a]pyridin-6-yl)-1H-imidazol-2-yl)-13,14-dihydro-2H-spiro[benzo[5,6]azocino[4,3-g]indolizine-3,1′-cyclopropane]-1,10(4H,12H)-dione]
 |  | 540 | 0.007 | 0.0035 | O=C1NC2(CC2)Cc2ccc(Cl)c(F)c2-c2cc(=O)n3c(c21)CC[C@H]3c1ncc(-c2ccc3cncn3c2)[nH]1 (stereo in doubt) [Compound 23, (S*)-7-chloro-8-fluoro-12-(5-(imidazo[1,5-a]pyridin-6-yl)-1H-imidazol-2-yl)-13,14-dihydro-2H-spiro[benzo[5,6]azocino[4,3-g]indolizine-3,1′-cyclopropane]-1,10(4H,12H)-dione]
> 5 |  | > 10000 | > 0.01 |  | COCCN1C(=O)c2c(cc(=O)n3c2CC[C@@H]3c2ncc(-c3ccc(N)nc3F)[nH]2)-c2c(ccc(Cl)c2F)CC12CC2 (stereo in doubt) [Compound 24, (R*)-12-(5-(6-amino-2-fluoropyridin-3-yl)-1H-imidazol-2-yl)-7-chloro-8-fluoro-2-(2-methoxyethyl)-13,14-dihydro-2H-spiro[benzo[5,6]azocino[4,3-g]indolizine-3,1′-cyclopropane]-1,10(4H,12H)-dione]
 |  | > 10000 | 0.26 | 0.13 | COCCN1C(=O)c2c(cc(=O)n3c2CC[C@H]3c2ncc(-c3ccc(N)nc3F)[nH]2)-c2c(ccc(Cl)c2F)CC12CC2 (stereo in doubt) [Compound 25, (S*)-12-(5-(6-amino-2-fluoropyridin-3-yl)-1H-imidazol-2-yl)-7-chloro-8-fluoro-2-(2-methoxyethyl)-13,14-dihydro-2H-spiro[benzo[5,6]azocino[4,3-g]indolizine-3,1′-cyclopropane]-1,10(4H,12H)-dione]
 |  | 70 | 0.0005 | 0.0003 | O=C1NC2(CC2)Cc2ccc(Cl)c(F)c2-c2cc(=O)n3c(c21)CC[C@@H]3c1ncc(-c2ccc3scnc3c2)[nH]1 (stereo in doubt) [Compound 26, (R*)-12-(5-(benzo[d]thiazol-5-yl)-1H-imidazol-2-yl)-7-chloro-8-fluoro-13,14-dihydro-2H-spiro[benzo[5,6]azocino[4,3-g]indolizine-3,1′-cyclopropane]-1,10(4H,12H)-dione]
1.19 | 2.39 | > 10000 |  |  | O=C1NC2(CC2)Cc2ccc(Cl)c(F)c2-c2cc(=O)n3c(c21)CC[C@H]3c1ncc(-c2ccc3scnc3c2)[nH]1 (stereo in doubt) [Compound 27, (S*)-12-(5-(benzo[d]thiazol-5-yl)-1H-imidazol-2-yl)-7-chloro-8-fluoro-13,14-dihydro-2H-spiro[benzo[5,6]azocino[4,3-g]indolizine-3,1′-cyclopropane]-1,10(4H,12H)-dione]
 |  | 330 | 0.0057 | 0.0029 | O=C1NC2(CC2)Cc2ccc(Cl)c(F)c2-c2cc(=O)n3c(c21)CC[C@@H]3c1ncc(-c2ccc3snnc3c2)[nH]1 (stereo in doubt) [Compound 30, (R*)-12-(5-(benzo[d][1,2,3]thiadiazol-5-yl)-1H-imidazol-2-yl)-7-chloro-8-fluoro-13,14-dihydro-2H-spiro[benzo[5,6]azocino[4,3-g]indolizine-3,1′-cyclopropane]-1,10(4H,12H)-dione]
 | 1.18 | > 10000 |  | 0.588 | O=C1NC2(CC2)Cc2ccc(Cl)c(F)c2-c2cc(=O)n3c(c21)CC[C@H]3c1ncc(-c2ccc3snnc3c2)[nH]1 (stereo in doubt) [Compound 31, (S*)-12-(5-(benzo[d][1,2,3]thiadiazol-5-yl)-1H-imidazol-2-yl)-7-chloro-8-fluoro-13,14-dihydro-2H-spiro[benzo[5,6]azocino[4,3-g]indolizine-3,1′-cyclopropane]-1,10(4H,12H)-dione]
 |  | 230 | 0.0007 | 0.0004 | Nc1ccc(-c2cnc([C@@H]3CCc4c5c(cc(=O)n43)-c3c(ccc(Cl)c3F)CC3(CCC3)NC5=O)[nH]2)c(F)n1 (stereo in doubt) [Compound 32, (S*)-12-(5-(6-amino-2-fluoropyridin-3-yl)-1H-imidazol-2-yl)-7-chloro-8-fluoro-13,14-dihydro-2H-spiro[benzo[5,6]azocino[4,3-g]indolizine-3,1′-cyclobutane]-1,10(4H,12H)-dione]
 |  | > 10000 | 0.237 | 0.118 | Nc1ccc(-c2cnc([C@H]3CCc4c5c(cc(=O)n43)-c3c(ccc(Cl)c3F)CC3(CCC3)NC5=O)[nH]2)c(F)n1 (stereo in doubt) [Compound 33, (R*)-12-(5-(6-amino-2-fluoropyridin-3-yl)-1H-imidazol-2-yl)-7-chloro-8-fluoro-13,14-dihydro-2H-spiro[benzo[5,6]azocino[4,3-g]indolizine-3,1′-cyclobutane]-1,10(4H,12H)-dione]
 |  | 6210 | 0.0337 | 0.0169 | Nc1ccc(-c2cnc([C@H]3CCc4c5c(cc(=O)n43)-c3c(ccc(Cl)c3F)CC3(CCCC3)NC5=O)[nH]2)c(F)n1 (stereo in doubt) [Compound 34, (R*)-12-(5-(6-amino-2-fluoropyridin-3-yl)-1H-imidazol-2-yl)-7-chloro-8-fluoro-13,14-dihydro-2H-spiro[benzo[5,6]azocino[4,3-g]indolizine-3,1′-cyclopentane]-1,10(4H,12H)-dione]
 |  | 90 | 0.0004 | 0.0002 | Nc1ccc(-c2cnc([C@@H]3CCc4c5c(cc(=O)n43)-c3c(ccc(Cl)c3F)CC3(CCCC3)NC5=O)[nH]2)c(F)n1 (stereo in doubt) [Compound 35, (S*)-12-(5-(6-amino-2-fluoropyridin-3-yl)-1H-imidazol-2-yl)-7-chloro-8-fluoro-13,14-dihydro-2H-spiro[benzo[5,6]azocino[4,3-g]indolizine-3,1′-cyclopentane]-1,10(4H,12H)-dione]
> 5 | > 10 | > 10000 |  |  | CN1C(=O)c2c(cc(=O)n3c2CC[C@@H]3c2ncc(-c3ccc(N)nc3F)[nH]2)-c2c(ccc(Cl)c2F)CC12CC2 (stereo in doubt) [Compound 40, (R*)-12-(5-(6-amino-2-fluoropyridin-3-yl)-1H-imidazol-2-yl)-7-chloro-8-fluoro-2-methyl-13,14-dihydro-2H-spiro[benzo[5,6]azocino[4,3-g]indolizine-3,1′-cyclopropane]-1,10(4H,12H)-dione]
 |  | > 10000 | 0.0086 | 0.0043 | CN1C(=O)c2c(cc(=O)n3c2CC[C@H]3c2ncc(-c3ccc(N)nc3F)[nH]2)-c2c(ccc(Cl)c2F)CC12CC2 (stereo in doubt) [Compound 41, (S*)-12-(5-(6-amino-2-fluoropyridin-3-yl)-1H-imidazol-2-yl)-7-chloro-8-fluoro-2-methyl-13,14-dihydro-2H-spiro[benzo[5,6]azocino[4,3-g]indolizine-3,1′-cyclopropane]-1,10(4H,12H)-dione]
 |  | > 10000 | 0.928 | 0.464 | Cn1nncc1-c1cnc([C@@H]2CCc3c4c(cc(=O)n32)-c2c(ccc(Cl)c2F)CC2(CC2)NC4=O)[nH]1 (stereo in doubt) [Compound 42, (S*)-7-chloro-8-fluoro-12-(5-(1-methyl-1H-1,2,3-triazol-5-yl)-1H-imidazol-2-yl)-13,14-dihydro-2H-spiro[benzo[5,6]azocino[4,3-g]indolizine-3,1′-cyclopropane]-1,10(4H,12H)-dione]
> 5 | > 10 | > 10000 |  |  | Cn1nncc1-c1cnc([C@H]2CCc3c4c(cc(=O)n32)-c2c(ccc(Cl)c2F)CC2(CC2)NC4=O)[nH]1 (stereo in doubt) [Compound 43, (R*)-7-chloro-8-fluoro-12-(5-(1-methyl-1H-1,2,3-triazol-5-yl)-1H-imidazol-2-yl)-13,14-dihydro-2H-spiro[benzo[5,6]azocino[4,3-g]indolizine-3,1′-cyclopropane]-1,10(4H,12H)-dione]
> 5 | > 10 | > 10000 |  |  | Cn1nncc1-c1cnc([C@@H]2CCc3c4c(cc(=O)n32)-c2c(ccc(Cl)c2F)CCNC4=O)[nH]1 (stereo in doubt) [Compound 44, (S*)-7-chloro-8-fluoro-12-(5-(1-methyl-1H-1,2,3-triazol-5-yl)-1H-imidazol-2-yl)-3,4,13,14-tetrahydrobenzo[5,6]azocino[4,3-g]indolizine-1,10(2H,12H)-dione]
2.58 | 5.15 | > 10000 |  |  | Cn1nncc1-c1cnc([C@H]2CCc3c4c(cc(=O)n32)-c2c(ccc(Cl)c2F)CCNC4=O)[nH]1 (stereo in doubt) [Compound 45, (R*)-7-chloro-8-fluoro-12-(5-(1-methyl-1H-1,2,3-triazol-5-yl)-1H-imidazol-2-yl)-3,4,13,14-tetrahydrobenzo[5,6]azocino[4,3-g]indolizine-1,10(2H,12H)-dione]

— patent US11897880B2, “7,8-dihydrobenzo[e]pyrido[3,4-c]azocine-2,5(3H,6H)-dione derivatives useful as a factor XIa inhibitors” (Janssen Pharmaceutica NV, priority 2021, dated 2024)
